# Measurements: US11485987B2, “Methods for inducing bioorthogonal reactivity” (University of Delaware, priority 2015, dated 2022)
# How the values were obtained:
# [1] = target: T1, horseradish peroxidase (HRP) (Armoracia rusticana, UniProt P00433); experiment: Horseradish peroxidase (HRP) catalyzed oxidation of DHTz to tetrazine; assay type: biochemical; conditions: [3a] 8 μM; HRP 15 nM; first 10 seconds
# T1 sequence (P00433 31-338): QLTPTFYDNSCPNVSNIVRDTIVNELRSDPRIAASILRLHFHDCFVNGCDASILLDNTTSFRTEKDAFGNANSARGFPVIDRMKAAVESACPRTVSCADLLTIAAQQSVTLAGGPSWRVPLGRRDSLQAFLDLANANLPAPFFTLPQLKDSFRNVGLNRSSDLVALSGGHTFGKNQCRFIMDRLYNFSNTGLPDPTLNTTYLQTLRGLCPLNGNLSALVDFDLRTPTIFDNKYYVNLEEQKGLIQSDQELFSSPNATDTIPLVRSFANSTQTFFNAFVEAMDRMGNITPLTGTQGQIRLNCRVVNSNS
# [2] = Fe-porphyrin catalyzed oxidation of DHTz; conditions: DHTz 35 uM in PBS pH 7.4, air
# Protocol: (§1) 4-Oxo-4-((6-(6-(pyridin-2-yl)-1,4-dihydro-1,2,4,5-tetrazin-3-yl)pyridin-3-yl)amino)butanoic acid (35 uM in PBS (pH 7.4), 2 mL) was placed in a 1 cm×1 cm cuvette with a strongly stirred magnetic stir bar in an atmosphere of air. A solution of Fe-TMPyP (50 uM in PBS (pH 7.4), 20 uL) was added to the cuvette. The reaction was monitored by a UV-Vis spectrometer at 280 nm and 325 nm.
# as §1, with “Fe-TPPS” for “Fe-TMPyP”
# F41A APEX2 = target: T2, F41A APEX2 (Glycine max, UniProt Q43758, A134P/E112K/K14D/W41A); experiment: Oxidation of DHT by F41A APEX2, UV-Vis initial rates and kinetic parameters; assay type: biochemical; conditions: for Initial rate of oxidation of DHT by F41A APEX2 + SOD: SOD 1 μM, PBS, 100 μM EDTA, first 100 s
# T2 sequence (Q43758 1-250 A134P/E112K/K14D/W41A): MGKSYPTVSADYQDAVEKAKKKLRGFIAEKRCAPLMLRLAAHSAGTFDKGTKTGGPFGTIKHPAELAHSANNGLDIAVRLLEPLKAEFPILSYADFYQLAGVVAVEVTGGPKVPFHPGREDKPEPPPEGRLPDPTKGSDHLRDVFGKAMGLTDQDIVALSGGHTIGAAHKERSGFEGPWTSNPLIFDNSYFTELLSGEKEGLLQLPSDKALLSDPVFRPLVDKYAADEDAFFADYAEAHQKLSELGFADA
# Protocol: UV-Vis and fluorescence measurements were conducted in quartz cuvettes. All reactions were conducted in phosphate buffered saline (PBS) containing 100 μM EDTA with a pH=7.4. The PBS was prepared by adding 25 mM phosphate salts (Na2HPO4 and NaH2PO4), 100 mM NaCl, 100 μM EDTA to DI water. EDTA was added to quench free metals that can oxidize DHT. The buffer was pH adjusted to 7.4 using 1 mM HCl and 1 mM NaOH. UV experiments were stirred at 25° C. in a temperature-controlled cuvette holder of the spectrophotometer. Solutions of 15 or 16 were prepared from methanol stock solutions.
# SOD (1 μM) was added to PBS containing 100 μM EDTA. 15 or 16 (60 μM) was added from methanol stock solutions. After 10s, APEX2 (SEQ ID NO:1) or F41A APEX2 (275 nM) was dosed in and oxidation was monitored at 325 nm for 15 and 285 nm for 16 at 60s intervals.
# The initial rate of oxidation was calculated from the first 100 seconds after APEX2 (SEQ ID NO:1) or F41A APEX2 was added ([…]). In the assays where SOD was added, SOD (1 μM) was added to PBS containing 100 μM EDTA and 15 or 16 was dosed in. 10 seconds later, APEX2 (SEQ ID NO:1) or F41A APEX2 ([…]) was added and the rate of oxidation was calculated from the first 100 seconds after APEX2 (SEQ ID NO:1) or F41A APEX2 ([…]) addition. The initial rate of oxidation was adjusted to background oxidation of DHT in PBS with 100 μM EDTA. Kinetic parameters (Table 2) were determined using GraphPad's Prism 6 software from the data presented below (Table 3-4).
Rate of HRP Oxidation of 3a [1] [M/s],Structure (SMILES),time to 50% completion of oxidation ([2]; Fe-TMPyP) [min],time to 95% completion of oxidation ([2]; Fe-TMPyP) [min],time to 50% completion of oxidation ([2]; Fe-TPPS) [min],Initial rate of oxidation of DHT by F41A APEX2 + SOD (F41A APEX2; DHT 5 μM),Initial rate of oxidation of DHT by F41A APEX2 + SOD (F41A APEX2; DHT 10 μM),Initial rate of oxidation of DHT by F41A APEX2 + SOD (F41A APEX2; DHT 15 μM),Initial rate of oxidation of DHT by F41A APEX2 + SOD (F41A APEX2; DHT 20 μM),Initial rate of oxidation of DHT by F41A APEX2 + SOD (F41A APEX2; DHT 25 μM),Initial rate of oxidation of DHT by F41A APEX2 + SOD (F41A APEX2; DHT 30 μM),Initial rate of oxidation of DHT by F41A APEX2 + SOD (F41A APEX2; DHT 40 μM),Initial rate of oxidation of DHT by F41A APEX2 + SOD (F41A APEX2; DHT 50 μM),Initial rate of oxidation of DHT by F41A APEX2 + SOD (F41A APEX2; DHT 60 μM),Initial rate of oxidation of DHT by F41A APEX2 + SOD (F41A APEX2; DHT 70 μM),Initial rate of oxidation of DHT by F41A APEX2 + SOD (F41A APEX2; DHT 75 μM),Initial rate of oxidation of DHT by F41A APEX2 + SOD (F41A APEX2; DHT 85 μM),factor of increase of rate of catalysis versus APEX2 (SEQ ID NO:1) (F41A APEX2; F41A APEX2 mutant with SOD)
3.4e-08,"O=C(O)CCC(=O)Nc1ccc(C2=NNC(c3ccccn3)=NN2)nc1 [3a, 4-oxo-4-((6-(6-(pyridin-2-yl)-1,4-dihydro-1,2,4,5-tetrazin-3-yl)pyridin-3-yl)amino)butanoic Acid]",≤ 1,≤ 5,≤ 5,–,–,–,–,–,–,–,–,–,–,–,–,–
–,O=C(O)CCCC(=O)Nc1ccc(C2=NNC(c3ccccn3)=NN2)nc1 [compound 15],–,–,–,1.080 +/− 0.113 ×10^−8 M/s,2.625 +/− 0.177 ×10^−8 M/s,2.549 +/− 0.145 ×10^−8 M/s,3.629 +/− 0.413 ×10^−8 M/s,3.863 +/− 0.163 ×10^−8 M/s,5.019 +/− 0.089 ×10^−8 M/s,5.758 +/− 0.855 ×10^−8 M/s,5.978 +/− 0.304 ×10^−8 M/s,7.688 +/− 0.698 ×10^−8 M/s,7.685 +/− 0.869 ×10^−8 M/s,10.059 +/− 0.594 ×10^−8 M/s,12.425 +/− 0.046 ×10^−8 M/s,7
